In ChEMBL document CHEMBL3864191 (ACS Med Chem Lett, 2016):

Tests used:
cells [1] = settings: Homo sapiens, HCT-116, 72 h
Description: Cytotoxicity against human HCT116 cells assessed as reduction in cell viability after 72 hrs by MTT assay

cells [2] = settings: Homo sapiens, MCF7, 72 h
Description: Cytotoxicity against human MCF7 cells assessed as reduction in cell viability after 72 hrs by MTT assay

[3] = Cytotoxicity against human DU145 cells assessed as reduction in cell viability after 72 hrs by MTT assay; type: functional, cell-based, DU-145; settings: Homo sapiens, DU-145, 72 h
[4] = Cytotoxicity against mouse CT26 cells assessed as reduction in cell viability after 72 hrs by MTT assay; type: functional, cell-based; settings: Mus musculus, CT26, 72 h
[5] = biological target: Induced myeloid leukemia cell differentiation protein Mcl-1 (Homo sapiens, UniProt Q07820); assay: Inhibition of FAM-Bid binding to human MCL1 expressed in Escherichia coli BL21 after 30 mins by fluorescence polarization assay
[6] = biological target: Apoptosis regulator Bcl-2 (Homo sapiens, UniProt P10415); assay: Inhibition of FAM-Bid binding to human BCL2 expressed in Escherichia coli BL21 after 30 mins by fluorescence polarization assay
[7] = Cytotoxicity against African green monkey Vero cells assessed as reduction in cell viability at 0.33 to 100 uM after 72 hrs by MTT assay; type: toxicity, cell-based; settings: chlorocebus sabaeus
[8] = Cytotoxicity against HEK293T cells assessed as reduction in cell viability at 0.33 to 100 uM after 72 hrs by MTT assay; type: toxicity, cell-based; settings: human, hek-293t

Sequence of Induced myeloid leukemia cell differentiation protein Mcl-1 (Q07820 whole entry): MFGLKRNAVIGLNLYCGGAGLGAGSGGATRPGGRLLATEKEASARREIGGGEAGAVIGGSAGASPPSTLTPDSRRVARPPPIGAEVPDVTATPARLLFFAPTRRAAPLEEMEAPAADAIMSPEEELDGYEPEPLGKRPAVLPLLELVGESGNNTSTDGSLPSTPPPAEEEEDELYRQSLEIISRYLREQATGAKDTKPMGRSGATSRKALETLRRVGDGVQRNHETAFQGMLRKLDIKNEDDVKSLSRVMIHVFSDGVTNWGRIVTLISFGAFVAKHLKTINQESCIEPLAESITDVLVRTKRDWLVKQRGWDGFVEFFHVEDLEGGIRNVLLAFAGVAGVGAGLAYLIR
Sequence of Apoptosis regulator Bcl-2 (P10415 whole entry): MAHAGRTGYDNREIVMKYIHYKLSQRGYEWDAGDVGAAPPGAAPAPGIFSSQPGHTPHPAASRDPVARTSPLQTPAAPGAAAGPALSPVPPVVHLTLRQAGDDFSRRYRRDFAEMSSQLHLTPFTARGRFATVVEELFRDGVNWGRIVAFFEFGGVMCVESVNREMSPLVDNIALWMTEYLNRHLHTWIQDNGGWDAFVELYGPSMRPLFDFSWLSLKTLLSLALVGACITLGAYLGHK

SMILES | IC50 (cells [1]) [µM] | IC50 (cells [2]) [µM] | IC50 [3] [µM] | IC50 [4] [µM] | IC50 [5] [µM] | Ki [5] [µM] | IC50 [6] [µM] | Ki [6] [µM] | Activity [7] | Activity [8]
COC(=O)[C@@H](N/C=C1\C(=O)C(O)=C(C(C)C)c2cc(C)c(-c3c(C)cc4c(c3O)/C(=C/N[C@H](C(=O)OC)C(C)C)C(=O)C(O)=C4C(C)C)c(O)c21)C(C)C | 77.1 | 77.3 | 12.1 | 5.85 |  |  |  |  |  | 
Cc1cc2c(c(O)c1-c1c(C)cc3c(c1O)/C(=C/NC1CCC(C(C)(C)C)CC1)C(=O)C(O)=C3C(C)C)/C(=C/NC1CCC(C(C)(C)C)CC1)C(=O)C(O)=C2C(C)C (stereo unspecified) | > 100 | > 100 | > 100 | 21.7 |  |  |  |  |  | 
COC(=O)CCCN/C=C1\C(=O)C(O)=C(C(C)C)c2cc(C)c(-c3c(C)cc4c(c3O)/C(=C/NCCCC(=O)OC)C(=O)C(O)=C4C(C)C)c(O)c21 (stereo in doubt; (+)-16) |  |  |  |  | 1.25 | 0.24 | 0.452 | 0.167 |  | 
Cc1cc2c(c(O)c1-c1c(C)cc3c(c1O)/C(=C/NCCCS(=O)(=O)O)C(=O)C(O)=C3C(C)C)/C(=C/NCCCS(=O)(=O)O)C(=O)C(O)=C2C(C)C | 43.1 | 17.7 | 36 | 35.6 |  |  |  |  |  | 
Cc1cc2c(c(O)c1-c1c(C)cc3c(c1O)/C(=C/N[C@H]1C[C@@H]4C[C@H]([C@@H]1C)C4(C)C)C(=O)C(O)=C3C(C)C)/C(=C/N[C@H]1C[C@@H]3C[C@H]([C@@H]1C)C3(C)C)C(=O)C(O)=C2C(C)C | > 100 | > 100 | > 100 | > 100 |  |  |  |  |  | 
Cc1cc2c(c(O)c1-c1c(C)cc3c(c1O)/C(=C/NC14CC5CC(CC(C5)C1)C4)C(=O)C(O)=C3C(C)C)/C(=C/NC13CC4CC(CC(C4)C1)C3)C(=O)C(O)=C2C(C)C | > 100 | > 100 | > 100 | > 100 |  |  |  |  |  | 
COC(=O)c1ccccc1N/C=C1\C(=O)C(O)=C(C(C)C)c2cc(C)c(-c3c(C)cc4c(c3O)/C(=C/Nc3ccccc3C(=O)OC)C(=O)C(O)=C4C(C)C)c(O)c21 | 37.3 | 24.7 | 20.9 | 21.4 |  |  |  |  |  | 
Cc1cc2c(c(O)c1-c1c(C)cc3c(c1O)/C(=C/NCCCCCC(=O)O)C(=O)C(O)=C3C(C)C)/C(=C/NCCCCCC(=O)O)C(=O)C(O)=C2C(C)C | 23.1 | 17.7 | 27.5 | 4.54 |  |  |  |  | Non-Toxic | Non-Toxic
COC(=O)CCCN/C=C1\C(=O)C(O)=C(C(C)C)c2cc(C)c(-c3c(C)cc4c(c3O)/C(=C/NCCCC(=O)OC)C(=O)C(O)=C4C(C)C)c(O)c21 (stereo in doubt; (-)-16) |  |  |  |  | 0.937 | 0.178 | 0.375 | 0.131 |  | 
Cc1cc2c(c(O)c1-c1c(C)cc3c(c1O)/C(=C/NCc1ccc4c(c1)OCO4)C(=O)C(O)=C3C(C)C)/C(=C/NCc1ccc3c(c1)OCO3)C(=O)C(O)=C2C(C)C | 8.3 | > 100 | 29.2 | > 100 |  |  |  |  |  | 
COC(=O)[C@H](CCSC)N/C=C1\C(=O)C(O)=C(C(C)C)c2cc(C)c(-c3c(C)cc4c(c3O)/C(=C/N[C@@H](CCSC)C(=O)OC)C(=O)C(O)=C4C(C)C)c(O)c21 | 0.52 | > 100 | 17.7 | > 100 |  |  |  |  |  | 
Cc1cc2c(c(O)c1-c1c(C)cc3c(c1O)/C(=C/NCCS(=O)(=O)O)C(=O)C(O)=C3C(C)C)/C(=C/NCCS(=O)(=O)O)C(=O)C(O)=C2C(C)C | 48.9 | 15.9 | 28.9 | 3.19 |  |  |  |  |  | 
Cc1cc2c(c(O)c1-c1c(C)cc3c(c1O)/C(=C/NCCC(=O)O)C(=O)C(O)=C3C(C)C)/C(=C/NCCC(=O)O)C(=O)C(O)=C2C(C)C | 21 | 19.4 | 21.6 | 67.3 |  |  |  |  | Non-Toxic | Non-Toxic
